Results: publication PMC12217481, “Structure and mechanism of taniborbactam inhibition of the cefepime-hydrolyzing, partial R2-loop deletion Pseudomonas-derived cephalosporinase variant PDC-88” (Antimicrobial Agents and Chemotherapy, 2025)

How the values were obtained:
[1] = tested on: isogenic E. coli strains expressing PDC R2-loop deletion variants (PDC-88 to PDC-92); assay: MIC changes across the five isogenic E. coli R2-loop deletion strains; format: cell-based, Escherichia coli; conditions: inhibitor at constant 4 µg/mL; R2-loop deletion variant strains
Experimental: Modal broth microdilution MICs (or median broth microdilution MICs where appropriate) were determined in accordance with Clinical and Laboratory Standards Institute (CLSI) M07 guidelines ([43]). Isogenic E. coli DH10B cells expressing the abovementioned plasmid-encoded PDC constructs were used. […] CLSI quality control strains Escherichia coli NCTC 13353, E. coli ATCC 35218, and Klebsiella pneumoniae ATCC 700603 were used during testing ([24]).

[2] = molecular target: T1, PDC-3 (Pseudomonas aeruginosa, UniProt P24735, T105A); assay: Timed ESI-MS of acyl-enzyme formation, PDC-3; format: biochemical
T1 construct: The PDC-3 expression construct was created in a similar manner but starting with a previously described pBC SK(−) vector; made in house; host or cells: E. coli BL21-CodonPlus (DE3)-RP, pET24a(+)
Experimental: (§1) Timed ESI-MS experiments allow tracking of the reaction over time and determination of product modification, enabling the elucidation of mechanistic detail. Time courses were collected for both PDC-3 and PDC-88 with FEP (Fig. 4), CAZ (Fig. S1), TOL (Fig. S2), and ATM (Fig. S3). Substrate modification (here, loss of the R2 group) was determined based on differences between masses of apo and acyl-enzyme peaks (Fig. S4). […] Based on the differences in mass between the apo enzyme peaks, the acyl-enzyme peaks, and the molecular masses of each substrate, the mass of the adducts was determined and used to predict any portion of the substrate molecule that might be lost during the reaction (Fig. S4). As expected ([26][–][28]), all three cephalosporin antibiotics (FEP, CAZ, and TOL) lost their R2 groups during the reaction, while ATM (the sole monobactam) maintained its initial mass.
(§2) Five micrograms of PDC-3 or PDC-88 was incubated at the indicated molar ratio (1:2 to 1:100 PDC:β-lactam) in a total volume of 20 µL in 1× PBS at pH 7.4 at room temperature for the duration of the indicated time points. Reactions were quenched with the addition of 10 µL acetonitrile and added to 1 mL of 0.1% formic acid in water.
(§3) Data were collected using a Waters Synapt G2-Si quadrupole time-of-flight (Q-TOF) mass spectrometer and Waters Acquity UPLC BEH C18 1.7 µm column (2.1 by 100 mm). MassLynx V4.1 was used to deconvolute protein peaks. The tune settings for each sample were as follows: capillary voltage of 3.5 kV, sampling cone voltage of 35 V, source offset of 35 V, source temperature of 100°C, desolvation temperature of 500°C, cone gas flow rate of 100 L/h, desolvation gas flow rate of 800 L/h, and nebulizer bar at 6.0. Mobile phase A was 0.1% formic acid in water. Mobile phase B was 0.1% formic acid in acetonitrile. The mass accuracy of this system is ±5 Da.

[3] = tested on: NDM-1; set-up: method as in PMID 22005056; conditions: cited from earlier work
[4] = molecular target: T2, PDC-88 (Pseudomonas aeruginosa, UniProt P24735, DEL316-317/G27D/G391A/T105A/V205L/V356I); assay: Timed ESI-MS of acyl-enzyme formation, PDC-88; format: biochemical
T2 construct: NdeI 5′-[…]-3ʹ and BamHI 5ʹ-[…]-3ʹ; His tag removed) (N); made in house; host or cells: E. coli BL21-CodonPlus (DE3)-RP, pET24a(+)
Experimental: as §1, §2, §3

[5] = 60 min incubation, starting molar ratio 1:2
[6] = timed ESI-MS, 1 to 30 min (ATM to 60 min)

| SMILES | restoration of FEP activity / susceptibility by inhibitor [1] | apo enzyme after incubation [2, 5] | acyl-enzyme complex formation and deacylation [2, 6] | hydrolysis by NDM-1 [3] | apo enzyme after incubation [4, 5] | acyl-enzyme complex formation and deacylation [4, 6] |
| --- | --- | --- | --- | --- | --- | --- |
| NC(=O)[C@@H]1CC[C@@H]2CN1C(=O)N2OS(=O)(=O)O [AVI, avibactam] | restoring FEP activity in all cases | – | – | – | – | – |
| C[C@H]1[C@H](NC(=O)/C(=N\OC(C)(C)C(=O)O)c2csc(N)n2)C(=O)N1S(=O)(=O)O [ATM, aztreonam] | – | less than 10% | quickly formed acyl-enzyme complexes | does not hydrolyze | no apo enzyme present | quickly formed acyl-enzyme complexes |
